Measured values as given in PubChem BioAssay AID179 (DTP/NCI, 2004).
“And” between values parts separate entries of the source, which are not always exact repeats. Equal entries are not always repeated. The source made the active and inactive calls.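 How the source made its calls: active means compounds giving half or more protection of infected cells from virus-caused growth loss, again on retest; inactive means the rest.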

Tested on: CEM cells HIV-1 protection, formazan growth assay
Test: NCI AIDS Antiviral Assay
Details: for IC50: measured here: growth of uninfected CEM cells
How it was run: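 CEM (human) cells, HIV-1 infected vs uninfected, 5-point dosing, formazan growth read-out. Retest threshold 50% protection.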

Row | SMILES | EC50 | IC50 | outcome
1 | Cc1ccc(-c2nc(-c3cnccn3)n(C3OC(CO)C(O)C(O)C3O)n2)cc1 (stereo not given) | > 200 µM | > 200 µM | 
2 | CCOC(=O)C(C)(C)/C=C\C(Cl)=C(Cl)Cl | > 200 µM | 117 µM | 
3 | CC1=CC(C)(C)NC(=S)N1CCO |  |  | inactive
4 | CC(=O)OCC1=C(C(=O)O)N2C(=O)C(NC(=O)CSc3ccncc3)C2SC1 (stereo not given) | 61.7 µM | 631 µM | 
5 | Cc1ccc(C2(C)CCC(C(C)(C)O)OO2)cc1 (stereo not given) |  |  | inactive
6 | CC1=Nc2ccccc2C12C(c1ccccc1)CC(=O)N1c3ccccc3CC12 (stereo not given) | > 33.9 µM | > 33.9 µM | 
7 | COC(=O)C(CNC(=O)/C=C/c1ccc(OC(C)=O)c(OC(C)=O)c1)NC(=O)/C=C/c1ccc(OC(C)=O)c(OC(C)=O)c1 (stereo not given) | > 200 µM | 36.3 µM | 
8 | C[N+](C)(CCO)CCN1c2ccccc2Sc2ccccc21 | > 200 µM | > 200 µM | 
9 | O=P(O)(CN(C1CCCCC1)C1CCCCC1)CN(C1CCCCC1)C1CCCCC1 | 178 µM | > 200 µM | 
10 | COC(=O)[C@@H]1CN(C(=O)CCc2ccccc2)C(=O)N1 | > 200 µM | > 200 µM | 
11 | Brc1ccc(SSc2ccc(Br)cc2)cc1 | > 200 µM | 9.12 µM and 3.39 µM | 
12 | CN1C2CCC1CC(C)(O)C2 (stereo not given) | > 200 µM | > 200 µM | 
13 | Cc1cccc(-n2nc3c(=O)n(C)c(=O)n(C)c3nc2=O)c1 | > 200 µM | > 200 µM | 
14 | CCc1cc2c(cc1C(=O)CCC(=O)O)CC1(C2)Cc2cc(CC)c(C(=O)CCC(=O)O)cc2C1 | > 200 µM | 107 µM | 
15 | Cc1cc(O)c(C=O)c2c1C(=O)Oc1c(CO)c(O)c3c(c1O2)C(O)OC3=O (stereo not given) | > 57.5 µM | > 57.5 µM | 
16 | CC(C)(C)[Si](C)(C)OCC1OC(n2ccc(=O)[nH]c2=O)C(O[Si](C)(C)C(C)(C)C)/C1=N/O (stereo not given) | > 200 µM | 4.07 µM | 
17 | Nc1ccc2cc(S(=O)(=O)O)cc(O)c2c1N=Nc1ccc(NC(=O)Nc2ccc(N=Nc3c(N)ccc4cc(S(=O)(=O)O)cc(O)c34)c(S(=O)(=O)O)c2)cc1S(=O)(=O)O | 55 µM | > 200 µM | 
18 | O=C1C2CN(Cc3ccccc3)CC1CN(CC1CC1)C2 | > 240 µM | > 240 µM | 
19 | Cc1ccc(NC(=O)c2cnccn2)c(=O)o1 | > 200 µM | > 200 µM | 
20 | O=S1(=O)NNC(=NCc2ccc(Cl)c(Cl)c2)c2ccccc21 |  |  | inactive
21 | O=C(c1ccccc1)N1C(=S)N=C(Nc2ccccc2)C1=Nc1ccccc1 | > 200 µM | > 200 µM | 

Row | SMILES | EC50 | IC50 | outcome
22 | NNC(=S)SSC(=S)NN | > 200 µM | 21.9 µM | 
23 | CCN(CC)CCOC(=O)c1[nH]c(=O)[nH]c(=O)c1N | > 200 µM | > 200 µM | 
24 | O=C1[C@@H]2C(c3ccc(Br)cc3)=NO[C@@H]2C(=O)N1c1ccc(Cc2ccc(N3C(=O)[C@H]4C(c5ccc(Br)cc5)=NO[C@H]4C3=O)cc2)cc1 | > 9.55 µM | > 9.55 µM | 
25 | COC(=O)c1oc(-c2ccccc2)c(-c2ccccc2)c1C(=O)OC | > 200 µM | 74.1 µM | 
26 | CCCCCCCCCCCc1c(O)c(=O)c2c(oc3c(=O)c(CCCCCCCCCCC)c(O)c(=O)c3n2-c2ccc(N(C)C)cc2)c1=O | > 2.04 µM | > 2.04 µM | 
27 | CCOC(=O)/C(=C\c1cccc(C#N)c1)C(C)=O | > 389 µM | 28.2 µM | 
28 | CCOC(=O)/C(C#N)=C/c1ccc(F)cc1 | > 162 µM | > 162 µM | 
29 | CN1C(=O)C(O)CC1c1cccc(F)c1 (stereo not given) | > 200 µM | > 200 µM | 
30 | CC(=O)NC1C(O)CC(O)(C(=O)O)OC1C(O)C(O)CO (stereo not given) |  |  | inactive
31 | N#CC1C(=O)NC(=O)C1=O (stereo not given) | > 1820 µM | > 1820 µM | 
32 | CC(C)(C)[Si](C)(C)OC1/C(=C/C#N)C(n2ccc(=O)[nH]c2=O)OC1CO (stereo not given) | > 200 µM | > 200 µM | 
33 | COC(=O)c1cc(=O)n2c(c1C(C)=O)N(C)CC2 | > 427 µM | > 427 µM | 
34 | CC(=O)Nc1nc(C)c(CCC#N)c(SC(=N)N)n1 | > 200 µM | > 200 µM | 
35 | CSc1ncnc2c1cnn2CCCCO | > 200 µM | > 200 µM | 
36 | O=c1[nH]cnc2c1ccn2C1OC(CO)C(O)C1O (stereo not given) | > 20 µM | 2.04 µM | 
37 | CCC(C)[P+](c1ccccc1)(c1ccccc1)c1ccccc1 (stereo not given) | > 200 µM | 2.63 µM and 2.51 µM | 
38 | CC(=O)/C(=C\c1ccco1)C(=O)Nc1ccccc1 | > 74.1 µM | > 74.1 µM | 
39 | CCOC(=O)c1ccc(N=Nc2ccc(N(CCC#N)CCC#N)cc2C)cc1 | > 9.77 µM | > 9.77 µM | 
40 | CC(C)CCCC(C)[C@H]1CC[C@H]2[C@@H]3CC[C@H]4C[C@@H](CCC=C(c5cc(Cl)c(OCc6ccc(B(O)O)cc6)c(C(=O)O)c5)c5cc(Cl)c(OCc6ccc(B(O)O)cc6)c(C(=O)O)c5)CC[C@]4(C)[C@H]3CC[C@]12C (stereo not given in full) | 5.89 µM | 93.3 µM | 
41 | CSC(=Nc1ccc(Br)cc1)NC(=O)c1cc([N+](=O)[O-])cc([N+](=O)[O-])c1 | > 200 µM | 34.7 µM | 
42 | CCCN(CCC)C(=O)Cc1c2n(c3ccccc13)CCCc1ccccc1-2 | > 13.8 µM | > 13.8 µM | 
